Drawing on ChEMBL document CHEMBL6096641, “Discovery of the synergy between sulindac and NO expands the application of NSAIDs in cardiac complications” (Bioorg Med Chem, 2024), this text covers Activity and IC50 for nine molecules.

Series [1] relates to H9c2. Nature of the series: Induction of NO release ratio in rat H9c2 cells under hypoxia condition by Griess reagent based microplate reader analysis relative to control. The class given is functional. Details: concentration or dose not given beside the values. Background: Nitrite, measured by Griess reagent, commonly stands in for NO production.
Series [2] relates to H9c2. Nature of the series: Induction of NO release in rat H9c2 cells under hypoxia condition at 1 to 50 uM incubated for 4 hrs by Griess reagent based microplate reader analysis. The settings on record: dose 1-50 µM. It counts as functional, cell-based.
The subject of series [3] is H9c2. Nature of the series: Upregulation of VEFG protein expression level in rat H9c2 cells at 1 uM under hypoxia by Western blotting analysis. It counts as functional, cell-based. On the technique in general: A western blot detects proteins with antibodies after separation by electrophoresis.
Series [4] deals with Rattus norvegicus. Nature of the series: Cardioprotective activity against LPS and talc powder induced pericarditis male Wistar rat assessed as improvement in pericardium thickening at 10 mg/kg administered for 3 days. It counts as functional, organism-based. The note with it: time 3.0 day.
Series [5] relates to H9c2. Nature of the series: Downregulation of ACE protein expression in rat H9c2 cells at 1 uM under hypoxia by Western blotting analysis. The class given is functional, cell-based.
The test system of series [6] is Rattus norvegicus. Put plainly: Cardioprotective activity against LPS and talc powder induced pericarditis male Wistar rat assessed as improvement in cardiac swelling at 10 mg/kg administered for 3 days. The settings on record: time 3.0 day. The class given is functional, organism-based.
Series [7] concerns H9c2. Nature of the series: Upregulation of HO-1 expression in rat H9c2 cells at 1 uM under hypoxia by Western blotting analysis. The class given is functional, cell-based.
The nature of series [8]: Induction of H2S release by absorbance based analysis. The class given is functional.
Series [9] in a line: Toxicity in male Wistar rat assessed as growth curve at 10 mg/kg administered once a day for 3 days and measured after 6 days. The class given is organism-based. The note with it: in vivo, 72 h, time 3 day.
Series [10] deals with T1, Prostaglandin G/H synthase 2 (Homo sapiens, UniProt P35354).
T1 sequence (P35354 whole entry): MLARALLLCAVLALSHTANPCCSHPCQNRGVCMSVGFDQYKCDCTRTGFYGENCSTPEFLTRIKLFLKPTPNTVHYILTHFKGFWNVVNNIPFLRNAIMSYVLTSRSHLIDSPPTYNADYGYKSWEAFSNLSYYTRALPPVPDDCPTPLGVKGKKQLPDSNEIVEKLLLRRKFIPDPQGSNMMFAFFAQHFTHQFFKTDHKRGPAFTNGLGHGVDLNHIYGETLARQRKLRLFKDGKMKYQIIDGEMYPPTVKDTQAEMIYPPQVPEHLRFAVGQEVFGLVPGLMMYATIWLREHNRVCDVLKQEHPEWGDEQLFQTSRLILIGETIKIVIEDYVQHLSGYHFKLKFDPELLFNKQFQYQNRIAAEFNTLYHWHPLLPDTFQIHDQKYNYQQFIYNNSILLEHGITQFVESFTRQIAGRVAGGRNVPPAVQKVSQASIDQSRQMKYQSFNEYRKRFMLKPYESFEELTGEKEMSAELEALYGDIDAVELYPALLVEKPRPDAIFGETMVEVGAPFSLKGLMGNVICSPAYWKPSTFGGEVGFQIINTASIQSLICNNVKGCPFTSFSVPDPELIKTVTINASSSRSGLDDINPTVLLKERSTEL
Nature of the series: Inhibition of COX-2 (unknown origin).

Calls of active or inactive are those of the source. The calls are words filed in the database; no cut-off is given here.

Broadly, the IC50 is the concentration at which inhibition is half-maximal.

For the molecule `COc1ccc2c(c1)c(CC(=O)Oc1ccc(N(C)N=O)cc1)c(C)n2C(=O)c1ccc(Cl)cc1`, in the series on H9c2 [1], the Activity was 32.85%.
As to `COc1ccc2cc(C(C)C(=O)Oc3ccc(N(C)N=O)cc3)ccc2c1` (single isomer, unassigned), the Activity with H9c2 [1] turned out to be 44.95%.
As to `CC1=C(CC(=O)O)c2cc(F)ccc2/C1=C\c1ccc([S+](C)[O-])cc1` (configuration not stated) [SULINDAC], the result with H9c2 [2] and in the series with H9c2 [3] was inactive. Also, the outcome in the series with Rattus norvegicus [4], in the series on H9c2 [5], in the series on Rattus norvegicus [6] and in the series on H9c2 [7] was Active. Further, the Activity in series [8] is 29.5 µg/L; in series [9] it was “Non-toxic”.
For `CCc1cccc2c3c([nH]c12)C(CC)(CC(=O)Oc1ccc(N(C)N=O)cc1)OCC3` (configuration not stated), in the series with H9c2 [1], the Activity is reported as 1.01%.
Consider `CC(C)Cc1ccc(C(C)C(=O)Oc2ccc(N(C)N=O)cc2)cc1` (configuration not stated), for which, in the series with H9c2 [1], the Activity was 12.11%. Moreover, it took 451 µM to reach half-maximal inhibition in [10] (IC50).
For the molecule `CC1=C(CC(=O)Oc2ccc(N(C)N=O)cc2)c2cc(F)ccc2/C1=C\c1ccc([S+](C)[O-])cc1` (configuration not stated), in the series with H9c2 [1], the Activity is given as 32.56%.
Turning to `CC(C(=O)Oc1ccc(N(C)N=O)cc1)c1cccc(Oc2ccccc2)c1` (configuration not stated), the Activity with H9c2 [1] is reported as 1.12%.
Take `Cc1cccc(Nc2ccccc2C(=O)Oc2ccc(N(C)N=O)cc2)c1C`: the Activity with H9c2 [1] was found to be 34.55%.
With `CC(C(=O)Oc1ccc(N(C)N=O)cc1)c1cccc(C(=O)c2ccccc2)c1` (configuration not stated), in the series with H9c2 [1], the Activity was 2.23%.
